Data from ChEMBL document CHEMBL1944545, “Discovery of novel selective inhibitors for EGFR-T790M/L858R” (Bioorg Med Chem Lett, 2012).

Key:
[1] = molecular target: Epidermal growth factor receptor (Homo sapiens, UniProt P00533); assay: Inhibition of wild-type EGFR expressed using baculovirus expression system by ELISA
[2] = molecular target: Epidermal growth factor receptor (Homo sapiens, UniProt P00533, L858R/T790M); assay: Inhibition of EGFR T790M/L858R mutant expressed using baculovirus expression system by ELISA
[3] = test system: A549; assay: Antiproliferative activity against human A549 cells over-expressing EGFR gene after 72 hrs by SRB assay; assay type: functional, cell-based; conditions: A549, 72 h
[4] = test system: A-431; assay: Antiproliferative activity against human A431 cells over-expressing EGFR gene after 72 hrs by SRB assay; assay type: functional, cell-based; conditions: A-431, 72 h
[5] = test system: NCI-H1975; assay: Antiproliferative activity against human NCI-H1975 cells over-expressing EGFR mutant gene after 72 hrs by SRB assay; assay type: functional, cell-based; conditions: NCI-H1975, 72 h

Epidermal growth factor receptor (Homo sapiens, UniProt P00533, L858R/T790M), sequence (P00533 25-1210 T790M/L858R limits assumed): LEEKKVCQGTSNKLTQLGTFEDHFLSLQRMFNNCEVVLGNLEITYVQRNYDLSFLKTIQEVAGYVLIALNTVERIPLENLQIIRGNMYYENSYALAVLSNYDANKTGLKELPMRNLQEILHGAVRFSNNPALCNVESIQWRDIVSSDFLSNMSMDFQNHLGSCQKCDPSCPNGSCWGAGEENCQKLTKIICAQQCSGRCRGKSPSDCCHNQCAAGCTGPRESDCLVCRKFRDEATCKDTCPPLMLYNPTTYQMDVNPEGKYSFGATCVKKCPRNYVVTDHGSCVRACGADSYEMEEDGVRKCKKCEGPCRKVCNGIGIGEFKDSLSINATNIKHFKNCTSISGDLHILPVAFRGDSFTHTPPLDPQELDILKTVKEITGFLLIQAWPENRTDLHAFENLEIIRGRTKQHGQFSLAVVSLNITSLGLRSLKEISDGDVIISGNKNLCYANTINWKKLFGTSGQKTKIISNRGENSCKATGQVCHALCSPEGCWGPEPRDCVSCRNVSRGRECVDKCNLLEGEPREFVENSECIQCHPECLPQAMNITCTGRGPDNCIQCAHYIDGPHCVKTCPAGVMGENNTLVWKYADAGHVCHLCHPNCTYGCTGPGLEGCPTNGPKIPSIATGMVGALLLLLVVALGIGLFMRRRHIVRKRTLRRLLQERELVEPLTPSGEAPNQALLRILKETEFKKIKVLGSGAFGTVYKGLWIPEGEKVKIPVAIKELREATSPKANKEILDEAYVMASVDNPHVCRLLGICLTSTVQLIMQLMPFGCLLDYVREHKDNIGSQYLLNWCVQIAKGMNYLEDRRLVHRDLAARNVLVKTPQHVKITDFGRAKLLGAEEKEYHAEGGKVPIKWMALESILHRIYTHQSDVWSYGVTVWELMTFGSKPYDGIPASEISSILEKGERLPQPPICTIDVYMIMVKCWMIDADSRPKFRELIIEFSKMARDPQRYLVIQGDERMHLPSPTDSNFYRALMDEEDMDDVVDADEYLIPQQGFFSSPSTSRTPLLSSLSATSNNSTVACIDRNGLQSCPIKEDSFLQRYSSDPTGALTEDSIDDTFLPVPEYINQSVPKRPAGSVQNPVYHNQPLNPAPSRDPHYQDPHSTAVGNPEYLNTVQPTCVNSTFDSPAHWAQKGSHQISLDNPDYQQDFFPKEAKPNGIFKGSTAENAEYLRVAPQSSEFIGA
Epidermal growth factor receptor (Homo sapiens, UniProt P00533), sequence (P00533 whole entry): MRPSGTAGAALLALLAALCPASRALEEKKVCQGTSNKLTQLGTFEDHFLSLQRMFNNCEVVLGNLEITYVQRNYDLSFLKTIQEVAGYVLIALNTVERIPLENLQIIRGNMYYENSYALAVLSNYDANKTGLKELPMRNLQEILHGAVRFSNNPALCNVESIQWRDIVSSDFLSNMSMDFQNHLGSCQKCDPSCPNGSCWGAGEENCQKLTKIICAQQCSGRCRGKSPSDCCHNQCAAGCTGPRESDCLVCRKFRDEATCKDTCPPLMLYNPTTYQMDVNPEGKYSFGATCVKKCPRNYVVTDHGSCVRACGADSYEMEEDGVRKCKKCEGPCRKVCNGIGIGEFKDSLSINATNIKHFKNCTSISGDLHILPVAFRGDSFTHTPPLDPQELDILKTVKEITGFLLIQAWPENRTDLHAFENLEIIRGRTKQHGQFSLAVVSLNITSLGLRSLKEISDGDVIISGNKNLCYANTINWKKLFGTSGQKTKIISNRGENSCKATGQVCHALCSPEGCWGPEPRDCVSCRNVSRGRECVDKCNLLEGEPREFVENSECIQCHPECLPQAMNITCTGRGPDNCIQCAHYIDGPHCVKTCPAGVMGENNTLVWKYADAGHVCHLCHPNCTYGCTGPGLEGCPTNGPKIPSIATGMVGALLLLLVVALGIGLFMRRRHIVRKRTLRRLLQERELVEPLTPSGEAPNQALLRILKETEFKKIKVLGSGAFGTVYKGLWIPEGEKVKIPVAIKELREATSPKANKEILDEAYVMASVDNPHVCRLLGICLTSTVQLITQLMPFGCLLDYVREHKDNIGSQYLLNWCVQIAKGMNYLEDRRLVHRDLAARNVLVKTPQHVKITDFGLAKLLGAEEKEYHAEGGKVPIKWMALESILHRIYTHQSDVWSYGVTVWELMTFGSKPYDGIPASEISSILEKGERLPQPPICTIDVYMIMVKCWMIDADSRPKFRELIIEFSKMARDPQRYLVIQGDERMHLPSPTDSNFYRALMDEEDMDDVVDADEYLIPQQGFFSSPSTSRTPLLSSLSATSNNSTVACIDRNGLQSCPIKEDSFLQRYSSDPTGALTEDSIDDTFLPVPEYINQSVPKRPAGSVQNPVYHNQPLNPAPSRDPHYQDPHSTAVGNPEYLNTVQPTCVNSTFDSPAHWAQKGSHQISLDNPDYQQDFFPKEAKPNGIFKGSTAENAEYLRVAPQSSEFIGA

Compound | IC50 [1] [µM] | IC50 [2] [µM] | IC50 [3] [µM] | IC50 [4] [µM] | IC50 [5] [µM]
CC(=O)Nc1ccc(S(=O)(=O)Nc2nc3ccccc3nc2Nc2ccc(C(=O)O)cc2)cc1 | 35.8 | 23.5 | > 100 | > 100 | > 100
O=c1c2c(-c3ccccc3)c3c(nc2nc2[nH]nc(S)n12)-c1ccccc1CC3 | 85.6 | > 100 | > 100 | > 100 | > 100
COc1ccc(Nc2nc(Cl)nc(NCc3ccco3)n2)cc1 | > 100 | 20.9 | > 100 | > 100 | > 100
CCc1ccc(C(=O)NNc2ccc(Cl)cc2C)cc1 | > 100 | 65.6 | > 100 | > 100 | > 100
COc1ccccc1Nc1ccnc(Nc2ccccc2OC)n1 | 90.4 | > 100 | 51.2 | 35.1 | 38.2
COc1cccc2c1C(=O)c1c(O)ccc(O)c1C2=O | 4.3 | 17.6 | > 100 | 71.5 | 89.4
COc1cccc(Nc2ccnc(Nc3cccc(OC)c3)n2)c1 | 7.7 | 36.1 | 3.4 | 0.8 | 4.1
O=C(Nc1cccc(Br)c1)c1c(O)c2ccccc2[nH]c1=O | > 100 | 56.8 | > 100 | > 100 | > 100
O=C(NNC(=O)c1ncc(Cc2ccsc2)s1)Nc1ccccc1 | > 100 | 40.9 | > 100 | > 100 | > 100
Cn1cc(NC(=O)/C=N/O)c(=O)n1-c1ccccc1 | > 100 | 8.9 | > 100 | > 100 | > 100
Cc1c(Cc2ccccc2)sc(NCC(=O)COc2ccc3ccccc3c2)c1C(N)=O | > 100 | 24.7 | 61.1 | 63.8 | 51.7
CN(C)c1nc(N/N=C/c2cc(Br)c(O)c(Br)c2O)nc(Nc2ccc(F)cc2)n1 | 25.9 | 6.5 | 7.7 | 8 | 10.5
C=CC(=O)Nc1ccc2ncnc(Nc3ccc(OCc4cccc(F)c4)c(Cl)c3)c2c1 [ALLITINIB] |  |  | 6.8 | 0.2 | 0.7
O=C(CSc1nc(O)nc(-c2ccc(Cl)cc2)n1)Nc1ccc(Cl)cc1 | > 100 | 13 | 42.9 | > 100 | > 100
Cn1c2ccccc2n2c(=S)[nH]nc12 | > 100 | 22 | > 100 | > 100 | > 100
CNc1nc(N/N=C\c2ccc(OC)cc2)nc(Nc2ccccc2)n1 | > 100 | 31 | 76.9 | 56 | > 100
Cc1ccc(-n2c(SCC(=O)Nc3ccccc3Cl)nc3sc(C)c(C)c3c2=O)cc1 | 81.6 | > 100 | 92.8 | > 100 | 53.7
CNc1nc(N/N=C/c2ccc(O)cc2)nc(Nc2ccccc2)n1 | > 100 | 30.7 | > 100 | 47 | > 100
CCOC(=O)c1ccc(NC(=O)CSc2nnc(CNc3ccc(OC)cc3)n2-c2ccccc2)cc1 | 92.4 | > 100 | > 100 | 56.3 | > 100
COc1ccc2c3oc(=O)cc(O)c3c(=O)n(C)c2c1 | 76.4 | 65.1 | 72.6 | > 100 | > 100
C=CCn1c(N)c(C(=O)N/N=C/c2cccs2)sc1=S | > 100 | 66 | > 100 | > 100 | > 100
COc1nc(NCCN2CCOCC2)nc(Nc2ccc(Cl)cc2)n1 | > 100 | 1.5 | > 100 | > 100 | > 100
